# Literature values, collected in patent US6113907A, “Pharmaceutical grade St. John's Wort” (priority 1997, dated 2000).
# Settings: depressed outpatients; cited from earlier work
compound,measurement,value
CCCC/N=C(/c1cc(Cl)ccc1O)c1ccccc1Cl [fengabine],antidepressant effects,antidepressant effects
